# Laboratory results published in ChEMBL document CHEMBL1201862, “PubChem BioAssay data set” (2004).
#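 Results reflect a 48-hour exposure of cells in 96-well plates to compound at five concentrations. The concentration for 50% growth inhibition is given as GI50.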 Active and inactive are the calls of the source. Cut-off read from the data, not from the text of the source: active = GI50 up to about 1.1 µM and inactive = higher.
# What was measured:
# Test in all cases: NCI tumour cell line growth inhibition, 48 h
# NCI-H522 = test system: NCI-H522
# SF-539 = test system: SF-539
# EKVX = test system: EKVX
# Malme-3M = test system: Malme-3M
# RXF 393 = test system: RXF 393
# K562 = test system: K562
# UACC-257 = test system: UACC-257
# Hs-578T = test system: Hs-578T
# HT-29 = test system: HT-29
# OVCAR-8 = test system: OVCAR-8
# 786-0 = test system: 786-0
# NCI-H23 = test system: NCI-H23
# U-251 = test system: U-251
# T47D = test system: T47D
# LOX IMVI = test system: LOX IMVI
# NCI-H460 = test system: NCI-H460
# SK-OV-3 = test system: SK-OV-3
# SF-295 = test system: SF-295
# SF-268 = test system: SF-268
# SN12C = test system: SN12C
Structure (SMILES),GI50 (NCI-H522),GI50 (SF-539),GI50 (EKVX),GI50 (Malme-3M),GI50 (RXF 393),GI50 (K562),GI50 (UACC-257),GI50 (Hs-578T),GI50 (HT-29),GI50 (OVCAR-8),GI50 (786-0),GI50 (NCI-H23),GI50 (U-251),GI50 (T47D),GI50 (LOX IMVI),GI50 (NCI-H460),GI50 (SK-OV-3),GI50 (SF-295),GI50 (SF-268),GI50 (SN12C)
O=C(CC(O)(C(F)(F)F)C(F)(F)F)C(c1ccccc1)C(O)(C(F)(F)F)C(F)(F)F (stereo unspecified),38.3 µM (inactive),17.1 µM (inactive),18.4 µM (inactive),50.4 µM (inactive),5.14 µM (inactive),7.6 µM (inactive),31.8 µM (inactive),4.15 µM (inactive),15.2 µM (inactive),14.8 µM (inactive),31.3 µM (inactive),6.47 µM (inactive),5.45 µM (inactive),13.1 µM (inactive),55.7 µM (inactive),6.08 µM (inactive),5.92 µM (inactive),40 µM (inactive),,
CC(=O)OC(C)(C)[C@H]1O[C@]23O[C@]1(C)C[C@@H](C)[C@@H]2[C@@]1(C)CC[C@@]24C[C@@]25CC[C@H](O[C@@H]2OC[C@@H](O)[C@H](O)[C@H]2O)C(C)(C)[C@@H]5CC[C@H]4[C@]1(C)[C@H]3O,7.28 µM (inactive),4.35 µM (inactive),4.06 µM (inactive),22.8 µM (inactive),3.36 µM (inactive),4.5 µM (inactive),18.8 µM (inactive),17.4 µM (inactive),8.38 µM (inactive),10.8 µM (inactive),6.38 µM (inactive),4.84 µM (inactive),6.41 µM (inactive),17.6 µM (inactive),3.27 µM (inactive),7.4 µM (inactive),12.3 µM (inactive),8 µM (inactive),14 µM (inactive),4.41 µM (inactive)
CC1=C(C)CC2C(=O)N(c3cc(C(C)(C)C)ccc3C(C)(C)C)C(=O)C2C1 (stereo unspecified),8.2 µM (inactive),78.3 µM (inactive),> 100 µM (inactive),4.55 µM (inactive),23.8 µM (inactive),> 100 µM (inactive),> 100 µM (inactive),5.82 µM (inactive),> 100 µM (inactive),> 100 µM (inactive),64.9 µM (inactive),94.4 µM (inactive),47.1 µM (inactive),> 100 µM (inactive),> 100 µM (inactive),> 100 µM (inactive),58.3 µM (inactive),48.2 µM (inactive),7.91 µM (inactive),> 100 µM (inactive)
COc1ccc(C)cc1N1C(=O)C2ON(Cc3ccc(CC(N)=O)cc3)C(c3c4ccccc4c(Cl)c4ccccc34)C2C1=O (stereo unspecified),32.1 µM (inactive),,28.2 µM (inactive),31.1 µM (inactive),13.3 µM (inactive),28.8 µM (inactive),15 µM (inactive),41.9 µM (inactive),20.3 µM (inactive),27.6 µM (inactive),21.4 µM (inactive),29.3 µM (inactive),24.3 µM (inactive),27.4 µM (inactive),22.8 µM (inactive),18.4 µM (inactive),31.8 µM (inactive),22.9 µM (inactive),26.5 µM (inactive),20.2 µM (inactive)
CC(C)[C@H]1NC(=O)[C@H]2N=C(S[C@H]2C)[C@@H]2CCCN2C(=O)[C@H](Cc2ccccc2)NC(=O)[C@@H]2CSC(=N2)[C@@H](Cc2ccccc2)NC(=O)[C@@H]2CSC1=N2,12.2 µM (inactive),22.3 µM (inactive),27.5 µM (inactive),> 50 µM (inactive),15.9 µM (inactive),4.71 µM (inactive),31.7 µM (inactive),15.1 µM (inactive),25.8 µM (inactive),33.6 µM (inactive),33.7 µM (inactive),40.3 µM (inactive),14.9 µM (inactive),35 µM (inactive),29.7 µM (inactive),,35.5 µM (inactive),30.3 µM (inactive),45.6 µM (inactive),40.2 µM (inactive)
Nc1nc(Cl)c(N)c(NCC2(CO)CCCC2)n1,> 100 µM (inactive),> 100 µM (inactive),20.7 µM (inactive),> 100 µM (inactive),78.7 µM (inactive),77.1 µM (inactive),71.6 µM (inactive),> 100 µM (inactive),> 100 µM (inactive),> 100 µM (inactive),> 100 µM (inactive),,> 100 µM (inactive),0.826 µM (active),97.9 µM (inactive),> 100 µM (inactive),10.4 µM (inactive),86.7 µM (inactive),> 100 µM (inactive),> 100 µM (inactive)
CC(=O)NNc1nc(C)c(C(/C=C/c2ccc([N+](=O)[O-])cc2)=N/NC(N)=S)s1,> 100 µM (inactive),> 100 µM (inactive),> 100 µM (inactive),> 100 µM (inactive),> 100 µM (inactive),,> 100 µM (inactive),> 100 µM (inactive),> 100 µM (inactive),> 100 µM (inactive),> 100 µM (inactive),> 100 µM (inactive),> 100 µM (inactive),> 100 µM (inactive),> 100 µM (inactive),> 100 µM (inactive),> 100 µM (inactive),> 100 µM (inactive),> 100 µM (inactive),> 100 µM (inactive)
COc1ccc(-n2nnc(C(N)=O)c2O)cc1,> 100 µM (inactive),,> 100 µM (inactive),91 µM (inactive),> 100 µM (inactive),> 100 µM (inactive),> 100 µM (inactive),> 100 µM (inactive),> 100 µM (inactive),> 100 µM (inactive),> 100 µM (inactive),> 100 µM (inactive),> 100 µM (inactive),> 100 µM (inactive),> 100 µM (inactive),> 100 µM (inactive),> 100 µM (inactive),> 100 µM (inactive),> 100 µM (inactive),> 100 µM (inactive)
N#CC(c1ccc(O)cc1)N1CCN(C(C#N)c2ccc(O)cc2)CC1 (stereo unspecified),> 100 µM (inactive),34.7 µM (inactive),35.7 µM (inactive),> 100 µM (inactive),33.9 µM (inactive),> 100 µM (inactive),> 100 µM (inactive),27.7 µM (inactive),> 100 µM (inactive),24.3 µM (inactive),> 64.1 µM (inactive),> 100 µM (inactive),22.3 µM (inactive),39.5 µM (inactive),> 100 µM (inactive),,28.6 µM (inactive),38.3 µM (inactive),24.5 µM (inactive),> 87.1 µM (inactive)
CC(=O)OCCn1cnc2c(NCC=C(C)C)ncnc21,> 100 µM (inactive),> 100 µM (inactive),> 100 µM (inactive),> 100 µM (inactive),> 100 µM (inactive),> 100 µM (inactive),> 100 µM (inactive),> 100 µM (inactive),> 100 µM (inactive),> 100 µM (inactive),> 100 µM (inactive),> 100 µM (inactive),,> 100 µM (inactive),> 100 µM (inactive),> 100 µM (inactive),> 100 µM (inactive),> 100 µM (inactive),> 100 µM (inactive),> 100 µM (inactive)
